In patent publication US12552758B2, “Inhibitors of MLH1 and/or PMS2 for cancer treatment” (NeoPhore Limited, priority 2020, dated 2026):

Legend:
[1] = biological target: recombinant N-terminal MLH1 (residues 15-340) (Homo sapiens (Human), UniProt P40692); experiment: Fluorescence polarisation assay for MLH1 (protocol for all Examples except Examples 64, 76, 90 and 95); assay type: binding; details: FP probe displacement; 100 nM N-terminal MLH1, 5 nM probe compound, read after 15 minutes; all Examples except 64, 76, 90 and 95
Protocol: Fluorescence Polarisation Assay for MLH1 (Protocol for all Examples Except Examples 64, 76, 90 and 95)
(§1) Test compounds, as 10 mM DMSO stocks, were dispensed into a Black Fluotrac 200 384 well medium binding plate (Greiner Bio-One, item number 781076) using a Labcyte Echo acoustic liquid handler. For single point screening, test compounds were added to wells in columns 1-22 whilst DMSO was added to wells in columns 23 and 24 in order to normalise the plate. For potency determination, serial dilutions of test compounds were added to wells in columns 3-22 and DMSO volume was normalised across the plate.
20 μL assay buffer was added to all wells in columns 1 and 24 (column 24 only for single point screening) using a MultiDrop Combi (ThermoFisher). Plates were centrifuged for 1 minute at 250×g and were incubated at room temperature for 30 minutes prior to the addition of 20 μL of 2×(10 nM) of 5-((5-(4-((2-(2,4-dihydroxy-5-isopropylbenzoyl)isoindolin-5-yl)methyl)piperazin-1-yl)pentyl)carbamoyl)-2-(6-(dimethylamino)-3-(dimethyliminio)-3H-xanthen-9-yl)benzoate (referred to hereinafter as “probe compound”) in assay buffer (prepared from a 100 μM DMSO stock) with a MultiDrop Combi (ThermoFisher). The final concentration of N-terminal MLH1 was 100 nM and the final concentration of probe compound was 5 nM.
(§2) Compound plates were centrifuged for 1 minute at 250×g for 1 minute and were incubated at room temperature for 15 minutes before being read on a PheraStar FSX (fitted with 384-well aperture spoon and 540 590 590 FP optic module). The gain and focus were adjusted before each plate was read so that the polarisation of a no enzyme control (column 24) was equal to 35 mP. Data were normalised against the no inhibitor controls (column 23) and no enzyme controls (column 24).

[2] = biological target: recombinant N-terminal PMS2 (residues 1-365) (Homo sapiens (Human), UniProt P54278); experiment: Fluorescence polarisation assay for PMS2; assay type: binding; details: FP probe displacement; 10 nM N-terminal PMS2, 5 nM probe compound, read after 1 hour
Protocol: Fluorescence Polarisation Assay for PMS2
as §1
20 μL assay buffer was added to all wells in columns 1 and 24 (column 24 only for single point screening) using a MultiDrop Combi (ThermoFisher). Plates were centrifuged for 1 minute at 250×g and were incubated at room temperature for 30 minutes prior to the addition of 20 μL of 2×([…]) of 5-((5-(4-((2-(2,4-dihydroxy-5-isopropylbenzoyl)isoindolin-5-yl)methyl)piperazin-1-yl)pentyl)carbamoyl)-2-(6-(dimethylamino)-3-(dimethyliminio)-3H-xanthen-9-yl)benzoate (referred to hereinafter as “probe compound”) in assay buffer (prepared from a 100 μM DMSO stock) with a MultiDrop Combi (ThermoFisher). The final concentration of N-terminal PMS2 was 10 nM and the final concentration of probe compound was 5 nM.
as §2, with “1 hour” for “15 minutes”

Sequence of recombinant N-terminal PMS2 (residues 1-365) (P54278 1-365): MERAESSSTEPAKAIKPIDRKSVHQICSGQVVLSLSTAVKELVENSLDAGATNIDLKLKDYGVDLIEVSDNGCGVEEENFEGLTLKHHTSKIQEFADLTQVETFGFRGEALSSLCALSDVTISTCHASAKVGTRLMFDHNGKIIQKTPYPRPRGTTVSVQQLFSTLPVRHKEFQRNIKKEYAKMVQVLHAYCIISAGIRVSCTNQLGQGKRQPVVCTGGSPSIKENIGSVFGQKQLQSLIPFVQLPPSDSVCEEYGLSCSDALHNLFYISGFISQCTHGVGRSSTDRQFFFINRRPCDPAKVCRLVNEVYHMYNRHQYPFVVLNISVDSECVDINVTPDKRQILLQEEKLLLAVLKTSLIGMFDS
Sequence of recombinant N-terminal MLH1 (residues 15-340) (P40692 15-340): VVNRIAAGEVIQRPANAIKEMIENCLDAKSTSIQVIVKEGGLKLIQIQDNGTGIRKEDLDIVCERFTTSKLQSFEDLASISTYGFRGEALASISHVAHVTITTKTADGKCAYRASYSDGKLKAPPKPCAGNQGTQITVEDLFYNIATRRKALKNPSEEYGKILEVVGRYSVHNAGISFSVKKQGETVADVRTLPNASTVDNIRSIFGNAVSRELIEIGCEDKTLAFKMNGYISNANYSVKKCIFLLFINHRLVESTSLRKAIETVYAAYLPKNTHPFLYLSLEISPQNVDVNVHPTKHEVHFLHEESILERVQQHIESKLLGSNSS

| SMILES | IC50 [1] [µM] | IC50 [2] [µM] |
| --- | --- | --- |
| Cc1c(O)cc(O)c(C(=O)N2Cc3ccc(CN(C)C)cc3C2)c1OCc1ccccc1 [Example 68, (2-(Benzyloxy)-4,6-dihydroxy-3-methylphenyl)(5-((dimethylamino)methyl)isoindolin-2-yl)methanone] | > 10 | < 1 |
| Cc1c(O)cc(O)c(C(=O)N2CCc3ccccc32)c1OCc1ccccc1 [Example 70, (2-(Benzyloxy)-4,6-dihydroxy-3-methylphenyl)(indolin-1-yl)methanone] | > 10 | 1 to 10 |
| Cc1c(O)cc(O)c(C(=O)N2CCCc3ccccc32)c1OCc1ccccc1 [Example 72, (2-(Benzyloxy)-4,6-dihydroxy-3-methylphenyl)(3,4-dihydroquinolin-1(2H)-yl)methanone] | > 10 | 1 to 10 |
| O=C(c1c(O)cc(O)cc1OCc1ccccc1)N1CCCc2ccccc21 [Example 73, (2-(Benzyloxy)-4,6-dihydroxyphenyl)(3,4-dihydroquinolin-1(2H)-yl)methanone] | 1 to 10 | 1 to 10 |
| Cc1c(O)cc(O)c(C(=O)N2Cc3ccncc3C2)c1OCc1ccccc1 [Example 74, (2-(Benzyloxy)-4,6-dihydroxy-3-methylphenyl)(1,3-dihydro-2H-pyrrolo[3,4-c]pyridin-2-yl)methanone] | > 10 | < 1 |
| Cc1c(O)cc(O)c(C(=O)N2CCc3ccc(C(=O)N(C)C)cc3C2)c1OCc1ccccc1 [Example 77, 2-(2-(Benzyloxy)-4,6-dihydroxy-3-methylbenzoyl)-N,N-dimethyl-1,2,3,4-tetrahydroisoquinoline-7-carboxamide] | > 10 | < 1 |
| Cc1c(O)cc(O)c(C(=O)N2Cc3ccc(C(=O)N(C)C)cc3C2)c1OCc1ccccc1 [Example 83, 2-(2-(Benzyloxy)-4,6-dihydroxy-3-methylbenzoyl)-N,N-dimethylisoindoline-5-carboxamide] | > 10 | < 1 |
| CNC(=O)c1ccc2c(c1)CN(C(=O)c1c(O)cc(O)c(C)c1OCc1ccccc1)C2 [Example 84, 2-(2-(Benzyloxy)-4,6-dihydroxy-3-methylbenzoyl)-N-methylisoindoline-5-carboxamide] | > 10 | < 1 |
| CNC(=O)c1cccc2c1CN(C(=O)c1c(O)cc(O)c(C)c1OCc1ccccc1)C2 [Example 86, 2-(2-(benzyloxy)-4,6-dihydroxy-3-methylbenzoyl)-N-methylisoindoline-4-carboxamide] | > 10 | 1 to 10 |
| Cc1c(O)cc(O)c(C(=O)N2Cc3cccc(OC4CCOC4)c3C2)c1OCc1ccccc1 (stereo not shown) [Example 88] | > 10 | < 1 |
| Cc1c(O)cc(O)c(C(=O)N2Cc3cccc(OCC4CNC4)c3C2)c1OCc1ccccc1 [Example 89, (4-(Azetidin-3-yl methoxy)isoindolin-2-yl) (2-(benzyloxy)-4,6-dihydroxy-3-methylphenyl) methanone] | > 10 | < 1 |
| COc1c(C)c(O)cc(O)c1C(=O)N1Cc2ccc(CN3CCN(C)CC3)cc2C1 [Example 92, (4,6-Dihydroxy-2-methoxy-3-methylphenyl)(5-((4-methylpiperazin-1-yl)methyl)isoindolin-2-yl)methanone] | > 10 | < 1 |

Results, then the compound that gave them:

| IC50 [1] [µM] | IC50 [2] [µM] | SMILES |
| --- | --- | --- |
| > 10 | 1 to 10 | Cc1c(O)cc(O)c(C(=O)N2Cc3ccccc3C2CO)c1OCc1ccccc1 (stereo not shown) [Example 63, (2-(benzyloxy)-4,6-dihydroxy-3-methylphenyl)(1-(hydroxymethyl)isoindolin-2-yl)methanone] |
| > 10 | > 10 | Cc1c(O)cc(O)c(C(=O)N2CCc3ccccc3C2CO)c1OCc1ccccc1 (stereo not shown) [Example 65, (2-(Benzyloxy)-4,6-dihydroxy-3-methylphenyl)(1-(hydroxymethyl)-3,4-dihydroisoquinolin-2(1H)-yl)methanone] |
| > 10 | 1 to 10 | Cc1c(O)cc(O)c(C(=O)N2Cc3ccccc3C(CO)C2)c1OCc1ccccc1 (stereo not shown) [Example 66, (2-(Benzyloxy)-4,6-dihydroxy-3-methylphenyl)(4-(hydroxymethyl)-3,4-dihydroisoquinolin-2(1H)-yl)methanone] |
| > 10 | < 1 | Cc1c(O)cc(O)c(C(=O)N2Cc3ccc(CN4CCOCC4)cc3C2)c1OCc1ccccc1 [Example 69, (2-(Benzyloxy)-4,6-dihydroxy-3-methylphenyl)(5-(morpholinomethyl)isoindolin-2-yl)methanone] |
| 1 to 10 | 1 to 10 | O=C(c1c(O)cc(O)cc1OCc1ccccc1)N1CCc2ccccc21 [Example 71, (2-(Benzyloxy)-4,6-dihydroxyphenyl)(indolin-1-yl)methanone] |
| > 10 | < 1 | Cc1c(O)cc(O)c(C(=O)N2Cc3cccc(CN4CCN(C)CC4)c3C2)c1OCc1ccccc1 [Example 75, (2-(Benzyloxy)-4,6-dihydroxy-3-methylphenyl)(4-((4-methylpiperazin-1-yl)methyl)isoindolin-2-yl)methanone] |
| > 10 | < 1 | Cc1c(O)cc(O)c(C(=O)N2CCc3cc(C(=O)N(C)C)ccc3C2)c1OCc1ccccc1 [Example 78, 2-(2-(benzyloxy)-4,6-dihydroxy-3-methylbenzoyl)-N,N-dimethyl-1,2,3,4-tetrahydroisoquinoline-6-carboxamide] |
| > 10 | < 1 | Cc1c(O)cc(O)c(C(=O)N2Cc3cccc(NC4CCOC4)c3C2)c1OCc1ccccc1 (stereo not shown) [Example 79, (2-(Benzyloxy)-4,6-dihydroxy-3-methylphenyl)(4-((tetrahydrofuran-3-yl)amino)isoindolin-2-yl)methanone] |
| 1 to 10 | < 1 | Cc1c(O)cc(O)c(C(=O)N2Cc3cccc(NC4COC4)c3C2)c1OCc1ccccc1 [Example 80, (2-(Benzyloxy)-4,6-dihydroxy-3-methylphenyl)(4-(oxetan-3-ylamino)isoindolin-2-yl)methanone] |
| > 10 | < 1 | Cc1c(O)cc(O)c(C(=O)N2Cc3cccc(N4CCCC(O)C4)c3C2)c1OCc1ccccc1 (stereo not shown) [Example 81, (2-(Benzyloxy)-4,6-dihydroxy-3-methylphenyl)(4-(3-hydroxypiperidin-1-yl)isoindolin-2-yl)methanone] |
| > 10 | < 1 | Cc1c(O)cc(O)c(C(=O)N2Cc3cccc(C#N)c3C2)c1OCc1ccccc1 [Example 82, 2-(2-(benzyloxy)-4,6-dihydroxy-3-methylbenzoyl)isoindoline-4-carbonitrile] |
| > 10 | < 1 | Cc1c(O)cc(O)c(C(=O)N2Cc3cccc(C(=O)N(C)C)c3C2)c1OCc1ccccc1 [Example 85, 2-(2-(Benzyloxy)-4,6-dihydroxy-3-methylbenzoyl)-N,N-dimethylisoindoline-4-carboxamide] |
| > 10 | < 1 | CC(=O)Nc1cccc2c1CN(C(=O)c1c(O)cc(O)c(C)c1OCc1ccccc1)C2 [Example 87, N-(2-(2-(benzyloxy)-4,6-dihydroxy-3-methylbenzoyl)isoindolin-4-yl)acetamide] |
| > 10 | < 1 | Cc1c(O)cc(O)c(C(=O)N2Cc3cccc(N4CC(C#N)C4)c3C2)c1OCc1ccccc1 [Example 91, 1-(2-(2-(Benzyloxy)-4,6-dihydroxy-3-methylbenzoyl)isoindolin-4-yl)azetidine-3-carbonitrile] |
